Publication PMC5405074, “Receptor-Mediated Melanoma Targeting with Radiolabeled α-Melanocyte-Stimulating Hormone: Relevance of the Net Charge of the Ligand” (Frontiers in Endocrinology, 2017)
Read-outs that look alike come from different tables or passages of the source. Non-standard residues stand in square brackets, D forms with d. Residues, ends and D or L forms follow the SMILES beside them. *: point of attachment. DOTA = O=C(O)CN1CCN(CC(=O)O)CCN(CC(=O)*)CCN(CC(=O)O)CC1; Nle = CCCC[C@H](N)C(=O)O

Key:
[1] = system: B16-F1 tumor-bearing mice; assay: Biodistribution of ^111In-labeled peptides in B16-F1 melanoma-bearing mice; format: in vivo, mouse (B6D2F1); details: in vivo
Method in brief: (§1)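 B16-F1 cells (about 5 × 10^5) grown s.c. in female B6D2F1 mice; 7 days later 185 kBq ^111In-labeled peptide injected i.v. Tissues collected at 4, 24 and 48 h and γ-counted, uptake given as %ID/g (mean ± SEM); non-specific uptake from co-injection of 50 µg α-MSH. Urine metabolites analysed by RP-HPLC/γ-detection.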

[2] = as above; format: in vivo, mouse (B6D2F1); details: female, iv, total radioactivity, ^111In-labeled peptide, 185 kBq i.v., mean ± SEM of three experiments, n = 5 animals each
Method in brief: as §1

MC1R (B16-F1 cells) = molecular target: T1, MC1R (B16-F1 cells) (Mus musculus, UniProt Q01727); assay: Competition binding assay with [^125I]-NDP-MSH, mouse B16-F1 melanoma cells; details: B16-F1 cells
T1 construct: endogenous in cells; host or cells: mouse B16-F1 melanoma cells
T1 sequence (Q01727 whole entry): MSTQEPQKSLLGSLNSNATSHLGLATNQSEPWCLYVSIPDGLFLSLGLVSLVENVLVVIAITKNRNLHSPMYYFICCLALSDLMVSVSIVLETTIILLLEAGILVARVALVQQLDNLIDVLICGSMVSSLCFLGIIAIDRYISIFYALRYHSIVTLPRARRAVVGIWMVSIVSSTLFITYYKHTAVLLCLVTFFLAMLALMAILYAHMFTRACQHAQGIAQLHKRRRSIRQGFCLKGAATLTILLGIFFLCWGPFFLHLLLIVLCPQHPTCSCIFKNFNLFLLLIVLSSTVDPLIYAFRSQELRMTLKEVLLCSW
Experimental: (§2) Triplicates of 100-µL volumes of B16-F1 or HBL cell suspensions adjusted to 4 × 10^6/mL were incubated in 96-well U-bottom microplates (Falcon 3077). The binding medium consisted of MEM with Earle’s salts, 0.2% BSA, and 0.3 mM 1,10-phenanthroline. This binding medium was called mouse binding medium (MBM). Triplicates of competitor peptide solution (50 µL) yielding final concentrations ranging from 1 × 10^−6 to 1 × 10^−12 M were added. [^125I]NDP-MSH (50,000 cpm) in 50 µL was finally added to each well. The plates were incubated at 15°C for 3 h for B16-F1 cells and at 37°C for 2 h for HBL cells. The incubation was stopped by covering the plates with ice for 10 min. A cell harvester was used to collect cell-bound radioactivity on filters (Packard Unifilter-96 GF/B). The collected radioactivity was counted on a TopCount scintillation counter (Packard) after addition of 50 µL Microscint-20 scintillation cocktail (Perkin Elmer). The IC50 values were calculated with the Prism 6 software (GraphPad Software Inc., San Diego CA, USA).
(§3) The binding affinity of the peptides to MC1R was assessed by competition binding assays using [^125I]-NDP-MSH as radioligand and both murine B16-F1 and human HBL cells.

MC1R (HBL cells) = molecular target: T2, MC1R (HBL cells) (Homo sapiens, UniProt Q01726); assay: Competition binding assay with [^125I]-NDP-MSH, human HBL melanoma cells; details: HBL cells
T2 construct: endogenous in cells; host or cells: human HBL melanoma cell line
T2 sequence (Q01726 whole entry): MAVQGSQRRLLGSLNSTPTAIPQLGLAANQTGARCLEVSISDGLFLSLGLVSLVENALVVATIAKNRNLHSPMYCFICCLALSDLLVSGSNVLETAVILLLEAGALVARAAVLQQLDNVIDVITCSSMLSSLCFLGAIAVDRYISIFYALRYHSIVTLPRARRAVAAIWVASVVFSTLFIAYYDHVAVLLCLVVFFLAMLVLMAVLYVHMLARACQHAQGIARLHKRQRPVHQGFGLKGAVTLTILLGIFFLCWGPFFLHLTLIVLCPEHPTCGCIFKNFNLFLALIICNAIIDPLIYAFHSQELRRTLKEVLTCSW
Experimental: as §2, §3

B16-F1 cells = assay: Internalization by cultured B16-F1 cells; format: cell-based, mouse; details: 37°C, 0.5, 2 and 3.5 h, 74 kBq radioligand
Experimental: B16-F1 cells were seeded in six-well plates and incubated overnight in MEM at 37°C. For the internalization experiments, MEM was replaced by 1 mL MBM (see above) as internalization buffer. After a 1-h incubation at 37°C, 74 kBq of radioligand (^111In-labeled peptides) was added, and the plates were incubated for different time periods. Non-specific internalization was determined by addition of 50 µL of a 1 µM α-MSH solution to the incubation mixture. After the desired incubation times, the cells were extensively washed with MBM kept at 37°C to remove excess radioligand. Incubation in 2 mL ice-cold acid buffer (acetate-buffered Hank’s balanced salt solution, pH 5) for 10 min allowed dissociation of surface-bound ligand. After collection of the acid buffer fraction, the cells were rinsed once with cold MBM, and the washings were pooled with the acid buffer fraction. The cells were washed again with MBM kept at 37°C, lysed in a 1% Triton X-100 solution, and finally transferred to tubes for quantification. The radioactivity of all collected fractions was measured in a γ-counter. A counting plate underwent the same treatment as the plate incubated for the longest time, but its cells were detached with 0.02% EDTA in PBS instead of being lysed with the Triton X-100 solution. Cells from three wells were collected, counted, and thus allowed for normalization of the results obtained. Results were expressed as percent of the added dose per million cells.
Figure 3 Determination of internalization of [^111In] DOTA-NAP-D-Asp-D-Asp (A) and [^111In]DOTA-Phospho-MSH2-9 (B) by cultured B16-F1 cells exposed to the peptides at 37°C for 0.5, 2, and 3.5 h. Surface-bound radioligand was released by an acid buffer wash, and internalized radioligand was determined by lysing cells with detergent. Results are expressed in percent of the added dose per million cells.

[3] = B6D2F1 (C57BL/6 × DBA/2F1 hybrids), mouse, blood, read-out: Blood uptake
[4] = B6D2F1 (C57BL/6 × DBA/2F1 hybrids), mouse, muscle, read-out: Muscle uptake
[5] = B6D2F1 (C57BL/6 × DBA/2F1 hybrids), mouse, skin, read-out: Skin uptake
[6] = B6D2F1 (C57BL/6 × DBA/2F1 hybrids), mouse, tumor, read-out: Tumor uptake
[7] = B6D2F1, mouse, bone, read-out: Bone uptake
[8] = B6D2F1, mouse, heart, read-out: Heart uptake
[9] = B6D2F1, mouse, kidney, read-out: Kidney uptake
[10] = B6D2F1, mouse, liver, read-out: Liver uptake
[11] = B6D2F1, mouse, lung, read-out: Lung uptake
[12] = B6D2F1, mouse, pancreas, read-out: Pancreas uptake
[13] = B6D2F1, mouse, small intestines, read-out: Small intestines uptake
[14] = B6D2F1, mouse, spleen, read-out: Spleen uptake
[15] = B6D2F1, mouse, stomach, read-out: Stomach uptake

## CCCC[C@H](NC(C)=O)C(=O)N[C@@H](CC(=O)O)C(=O)N[C@@H](Cc1c[nH]cn1)C(=O)N[C@H](Cc1ccccc1)C(=O)N[C@@H](CCCNC(=N)N)C(=O)N[C@@H](Cc1c[nH]c2ccccc12)C(=O)NCC(=O)N[C@@H](CCCCNC(=O)CN1CCN(CC(=O)O)CCN(CC(=O)O)CCN(CC(=O)O)CC1)C(=O)N[C@H](CC(=O)O)C(=O)N[C@H](CC(=O)O)C(=O)O [DOTA-NAP-D-Asp-D-Asp, Ac-Nle-Asp-His-D-Phe-Arg-Trp-Gly-Lys(DOTA)-D-Asp-D-Asp-OH] (Ac-[Nle]DH[dF]RWGK(DOTA)[dD][dD]-OH)
[1]
  Kidney uptake/retention compared with reference (in words): markedly increased
[1]; melanoma tumors
  Tumor uptake lower than that of reference: ~ 4 fold
[2]; [3]
  tissue uptake at 4 h: 0.01 %ID/g
  tissue uptake at 24 h: 0.01 %ID/g
  tissue uptake at 48 h: 0.01 %ID/g
[2]; B6D2F1 (C57BL/6 × DBA/2F1 hybrids), mouse, bone, read-out: Bone uptake
  tissue uptake at 48 h: 0.07 ± 0.01 %ID/g
[2]; [4]
  tissue uptake at 4 h: 0.02 %ID/g
  tissue uptake at 24 h: 0.02 %ID/g
  tissue uptake at 48 h: 0.03 %ID/g
[2]; [5]
  tissue uptake at 4 h: 0.06 ± 0.01 %ID/g
  tissue uptake at 24 h: 0.06 %ID/g
  tissue uptake at 48 h: 0.04 %ID/g
[2]; [6]
  tissue uptake at 24 h: 0.63 ± 0.03 %ID/g
  tissue uptake at 48 h: 0.23 ± 0.02 %ID/g
[2]; [7]
  tissue uptake at 4 h: 0.07 ± 0.01 %ID/g
  tissue uptake at 24 h: 0.06 ± 0.01 %ID/g
[2]; [8]
  tissue uptake at 4 h: 0.03 %ID/g
  tissue uptake at 24 h: 0.03 %ID/g
  tissue uptake at 48 h: 0.03 %ID/g
[2]; [9]
  tissue uptake at 24 h: 4.09 ± 0.16 %ID/g
  tissue uptake at 48 h: 2.02 ± 0.08 %ID/g
[2]; [10]
  tissue uptake at 4 h: 0.1 %ID/g
  tissue uptake at 24 h: 0.09 %ID/g
  tissue uptake at 48 h: 0.07 %ID/g
[2]; [11]
  tissue uptake at 4 h: 0.06 %ID/g
  tissue uptake at 24 h: 0.04 %ID/g
  tissue uptake at 48 h: 0.03 %ID/g
[2]; [12]
  tissue uptake at 4 h: 0.03 %ID/g
  tissue uptake at 24 h: 0.02 %ID/g
  tissue uptake at 48 h: 0.03 %ID/g
[2]; [13]
  tissue uptake at 4 h: 0.05 ± 0.01 %ID/g
  tissue uptake at 24 h: 0.04 ± 0.01 %ID/g
  tissue uptake at 48 h: 0.03 %ID/g
[2]; [14]
  tissue uptake at 4 h: 0.07 %ID/g
  tissue uptake at 24 h: 0.07 %ID/g
  tissue uptake at 48 h: 0.07 %ID/g
[2]; [15]
  tissue uptake at 4 h: 0.11 %ID/g
  tissue uptake at 24 h: 0.03 %ID/g
  tissue uptake at 48 h: 0.02 %ID/g
MC1R (B16-F1 cells)
  Reduction of MC1R affinity compared to DOTA-NAP-amide: ~ 10 fold
MC1R (HBL cells)
  Reduction of MC1R affinity compared to DOTA-NAP-amide: ~ 10 fold
B16-F1 cells
  Internalization profile (in words): rapid internalization
